pKi: −log10 of the molar value.
Assays:
U-251 = assay: Anticancer activity against human U-251 cells assessed as cell growth inhibition at 10 uM incubated for 48 hrs by SRB assay relative to control; format: functional; details: read-out: GI
RXF 393 = assay: Anticancer activity against human RXF 393 cells assessed as cell growth inhibition at 10 uM incubated for 48 hrs by SRB assay relative to control; format: functional; details: read-out: GI
EKVX = assay: Anticancer activity against human EKVX cells assessed as cell growth inhibition at 10 uM incubated for 48 hrs by SRB assay relative to control; format: functional; details: read-out: GI
HCT-15 = assay: Anticancer activity against human HCT-15 cells assessed as cell growth inhibition at 10 uM incubated for 48 hrs by SRB assay relative to control; format: functional; details: read-out: GI
NCI-H23 = assay: Anticancer activity against human NCI-H23 cells assessed as cell growth inhibition at 10 uM incubated for 48 hrs by SRB assay relative to control; format: functional; details: read-out: GI
LOX IMVI = assay: Anticancer activity against human LOX IMVI cells assessed as cell growth inhibition at 10 uM incubated for 48 hrs by SRB assay relative to control; format: functional; details: read-out: GI
OVCAR-5 = assay: Anticancer activity against human OVCAR-5 cells assessed as cell growth inhibition at 10 uM incubated for 48 hrs by SRB assay relative to control; format: functional; details: read-out: GI
OVCAR-8 = assay: Anticancer activity against human OVCAR-8 cells assessed as cell growth inhibition at 10 uM incubated for 48 hrs by SRB assay relative to control; format: functional; details: read-out: GI
MDA-MB-468 = assay: Anticancer activity against human MDA-MB-468 cells assessed as cell growth inhibition at 10 uM incubated for 48 hrs by SRB assay relative to control; format: functional; details: read-out: GI
KM12 = assay: Anticancer activity against human KM12 cells assessed as cell growth inhibition at 10 uM incubated for 48 hrs by SRB assay relative to control; format: functional; details: read-out: GI
Carbonic anhydrase 9 = Carbonic anhydrase 9 (Homo sapiens, UniProt Q16790); assay: Inhibition of recombinant human CA 9 preincubated for 15 mins by phenol red dye based stopped flow CO2 hydration assay
OVCAR-3 = assay: Anticancer activity against human OVCAR-3 cells assessed as cell growth inhibition at 10 uM incubated for 48 hrs by SRB assay relative to control; format: functional; details: read-out: GI
HOP-62 = assay: Anticancer activity against human HOP-62 cells assessed as cell growth inhibition at 10 uM incubated for 48 hrs by SRB assay relative to control; format: functional; details: read-out: GI
MDA-MB-231 = assay: Anticancer activity against human MDA-MB-231 cells assessed as cell growth inhibition at 10 uM incubated for 48 hrs by SRB assay relative to control; format: functional; details: read-out: GI
MCF7 = assay: Anticancer activity against human MCF7 cells assessed as cell growth inhibition at 10 uM incubated for 48 hrs by SRB assay relative to control; format: functional; details: read-out: GI
SF-268 = assay: Anticancer activity against human SF-268 cells assessed as cell growth inhibition at 10 uM incubated for 48 hrs by SRB assay relative to control; format: functional; details: read-out: GI
A549 = assay: Anticancer activity against human A549 cells assessed as cell growth inhibition at 10 uM incubated for 48 hrs by SRB assay relative to control; format: functional; details: read-out: GI
HOP-92 = assay: Anticancer activity against human HOP-92 cells assessed as cell growth inhibition at 10 uM incubated for 48 hrs by SRB assay relative to control; format: functional; details: read-out: GI
Malme-3M = assay: Anticancer activity against human Malme-3M cells assessed as cell growth inhibition at 10 uM incubated for 48 hrs by SRB assay relative to control; format: functional; details: read-out: GI
SN12C = assay: Anticancer activity against human SN12C cells assessed as cell growth inhibition at 10 uM incubated for 48 hrs by SRB assay relative to control; format: functional; details: read-out: GI
T47D = assay: Anticancer activity against human T47D cells assessed as cell growth inhibition at 10 uM incubated for 48 hrs by SRB assay relative to control; format: functional; details: read-out: GI
COLO 205 = assay: Anticancer activity against human COLO 205 cells assessed as cell growth inhibition at 10 uM incubated for 48 hrs by SRB assay relative to control; format: functional; details: read-out: GI
OVCAR-4 = assay: Anticancer activity against human OVCAR-4 cells assessed as cell growth inhibition at 10 uM incubated for 48 hrs by SRB assay relative to control; format: functional; details: read-out: GI
K562 = assay: Anticancer activity against human K562 cells assessed as cell growth inhibition at 10 uM incubated for 48 hrs by SRB assay relative to control; format: functional; details: read-out: GI
NCI-H460 = assay: Anticancer activity against human NCI-H460 cells assessed as cell growth inhibition at 10 uM incubated for 48 hrs by SRB assay relative to control; format: functional; details: read-out: GI
SNB-19 = assay: Anticancer activity against human SNB-19 cells assessed as cell growth inhibition at 10 uM incubated for 48 hrs by SRB assay relative to control; format: functional; details: read-out: GI
Hs-578T = assay: Anticancer activity against human Hs-578T cells assessed as cell growth inhibition at 10 uM incubated for 48 hrs by SRB assay relative to control; format: functional; details: read-out: GI
HT-29 = assay: Anticancer activity against human HT-29 cells assessed as cell growth inhibition at 10 uM incubated for 48 hrs by SRB assay relative to control; format: functional; details: read-out: GI
UO-31 = assay: Anticancer activity against human UO-31 cells assessed as cell growth inhibition at 10 uM incubated for 48 hrs by SRB assay relative to control; format: functional; details: read-out: GI
MOLT-4 = assay: Anticancer activity against human MOLT-4 cells assessed as cell growth inhibition at 10 uM incubated for 48 hrs by SRB assay relative to control; format: functional; details: read-out: GI
NCI-H522 = assay: Anticancer activity against human NCI-H522 cells assessed as cell growth inhibition at 10 uM incubated for 48 hrs by SRB assay relative to control; format: functional; details: read-out: GI
786-0 = assay: Anticancer activity against human 786-0 cells assessed as cell growth inhibition at 10 uM incubated for 48 hrs by SRB assay relative to control; format: functional; details: read-out: GI
PC-3 = assay: Anticancer activity against human PC-3 cells assessed as cell growth inhibition at 10 uM incubated for 48 hrs by SRB assay relative to control; format: functional; details: read-out: GI
RPMI-8226 = assay: Anticancer activity against human RPMI-8226 cells assessed as cell growth inhibition at 10 uM incubated for 48 hrs by SRB assay relative to control; format: functional; details: read-out: GI
SK-MEL-2 = assay: Anticancer activity against human SK-MEL-2 cells assessed as cell growth inhibition at 10 uM incubated for 48 hrs by SRB assay relative to control; format: functional; details: read-out: GI
TK-10 = assay: Anticancer activity against human TK-10 cells assessed as cell growth inhibition at 10 uM incubated for 48 hrs by SRB assay relative to control; format: functional; details: read-out: GI
SNB-75 = assay: Anticancer activity against human SNB-75 cells assessed as cell growth inhibition at 10 uM incubated for 48 hrs by SRB assay relative to control; format: functional; details: read-out: GI
SF-539 = assay: Anticancer activity against human SF-539 cells assessed as cell growth inhibition at 10 uM incubated for 48 hrs by SRB assay relative to control; format: functional; details: read-out: GI
SK-MEL-5 = assay: Anticancer activity against human SK-MEL-5 cells assessed as cell growth inhibition at 10 uM incubated for 48 hrs by SRB assay relative to control; format: functional; details: read-out: GI
A498 = assay: Anticancer activity against human A498 cells assessed as cell growth inhibition at 10 uM incubated for 48 hrs by SRB assay relative to control; format: functional; details: read-out: GI

| SMILES | inhibition of growth at 10 µM (U-251) [%] | inhibition of growth at 10 µM (RXF 393) [%] | inhibition of growth at 10 µM (EKVX) [%] | inhibition of growth at 10 µM (HCT-15) [%] | inhibition of growth at 10 µM (NCI-H23) [%] | inhibition of growth at 10 µM (LOX IMVI) [%] | inhibition of growth at 10 µM (OVCAR-5) [%] | inhibition of growth at 10 µM (OVCAR-8) [%] | inhibition of growth at 10 µM (MDA-MB-468) [%] | inhibition of growth at 10 µM (KM12) [%] | inhibition of growth at 10 µM (OVCAR-3) [%] | inhibition of growth at 10 µM (HOP-62) [%] | inhibition of growth at 10 µM (MDA-MB-231) [%] | inhibition of growth at 10 µM (MCF7) [%] | inhibition of growth at 10 µM (SF-268) [%] | inhibition of growth at 10 µM (A549) [%] | inhibition of growth at 10 µM (HOP-92) [%] | inhibition of growth at 10 µM (Malme-3M) [%] | inhibition of growth at 10 µM (SN12C) [%] | inhibition of growth at 10 µM (T47D) [%] | also measured |
| --- | --- | --- | --- | --- | --- | --- | --- | --- | --- | --- | --- | --- | --- | --- | --- | --- | --- | --- | --- | --- | --- |
| NS(=O)(=O)c1ccc(Nc2nc(N/N=C/c3ccc(F)cc3)nc(Nc3ccccc3)n2)cc1 | 88 | 42 | 37 | 20 | 45 | 39 | 24 | 70 | 45 | 69 | 69 | 82 | 38 | 71 | 58 | 92 | 36 | 42 | 49 | 79 | pKi (Carbonic anhydrase 9): 7.21; inhibition of growth at 10 µM (COLO 205): 79%; inhibition of growth at 10 µM (OVCAR-4): 44%; inhibition of growth at 10 µM (K562): 45%; inhibition of growth at 10 µM (NCI-H460): 34%; inhibition of growth at 10 µM (SNB-19): 30%; inhibition of growth at 10 µM (Hs-578T): 59%; inhibition of growth at 10 µM (HT-29): 95%; inhibition of growth at 10 µM (UO-31): 33%; inhibition of growth at 10 µM (MOLT-4): 78%; inhibition of growth at 10 µM (NCI-H522): 84%; inhibition of growth at 10 µM (786-0): 41%; inhibition of growth at 10 µM (PC-3): 60%; inhibition of growth at 10 µM (RPMI-8226): 49%; inhibition of growth at 10 µM (SK-MEL-2): 109%; inhibition of growth at 10 µM (TK-10): 98%; inhibition of growth at 10 µM (SNB-75): < 10%; inhibition of growth at 10 µM (SF-539): 37%; inhibition of growth at 10 µM (SK-MEL-5): 61% |
| NNc1nc(Nc2ccccc2)nc(Nc2ccc(S(N)(=O)=O)cc2)n1 | < 10 | < 10 | < 10 | < 10 | < 10 | < 10 | < 10 | < 10 | < 10 | < 10 | < 10 | < 10 | < 10 | < 10 | < 10 | < 10 | < 10 | < 10 | < 10 | < 10 | inhibition of growth at 10 µM (COLO 205): < 10%; inhibition of growth at 10 µM (A498): < 10%; inhibition of growth at 10 µM (OVCAR-4): < 10%; inhibition of growth at 10 µM (K562): < 10%; inhibition of growth at 10 µM (NCI-H460): < 10%; inhibition of growth at 10 µM (SNB-19): < 10%; inhibition of growth at 10 µM (Hs-578T): < 10%; inhibition of growth at 10 µM (HT-29): < 10%; inhibition of growth at 10 µM (UO-31): 13%; inhibition of growth at 10 µM (MOLT-4): 81%; inhibition of growth at 10 µM (NCI-H522): < 10%; inhibition of growth at 10 µM (786-0): < 10%; inhibition of growth at 10 µM (PC-3): < 10%; inhibition of growth at 10 µM (RPMI-8226): < 10%; inhibition of growth at 10 µM (SK-MEL-2): < 10%; inhibition of growth at 10 µM (TK-10): < 10%; inhibition of growth at 10 µM (SNB-75): < 10%; inhibition of growth at 10 µM (SF-539): < 10%; inhibition of growth at 10 µM (SK-MEL-5): < 10% |

Source: ChEMBL document CHEMBL5154747, “Discovery of new carbonic anhydrase IX inhibitors as anticancer agents by toning the hydrophobic and hydrophilic rims of the active site to encounter the dual-tail approach” (Eur J Med Chem, 2022)
